Source: patent publication US6864233B2, “Fungicidal echinocandin derivatives and their preparation” (Aventis Pharma S.A., priority 2000, dated 2005)
*1 amine or outer side, *2 acyl side, *3 side chain or, on linkers, in order; H or OH if unused. Where a SMILES comes first, the peptide text is derived from it. Bridges are numbered along the chain shown (N, C = ends). [ ]: non-standard residue; d: D form. The star is where a group is joined. ξ: configuration not given here. X1 = CC(C)=CCCC(C)C1CCC2(C)C3=C(CCC12C)C1(C)CCC(OC(=O)*)C(C)(C)C1CC3; ξOrn(4,5-diOH) = O=C(C(CC(O)C(O)N[*:3])N[*:1])[*:2]; ξhTyr(βOH) = NC(C(=O)O)C(O)Cc1ccc(O)cc1; ξPro(3ξ-OH,4ξ-Me) = CC1CNC(C(=O)O)C1O; Hyp = O=C(O)[CH]1C[CH](O)CN1

Molecular target: T1, Glucan Synthase of Candida Albicans (Candida albicans, UniProt O13428)
T1 construct: 22.5 μg of membrane proteins are incubated in a mixture of 2 mM of; endogenous in cells
T1 sequence (O13428 1-1897): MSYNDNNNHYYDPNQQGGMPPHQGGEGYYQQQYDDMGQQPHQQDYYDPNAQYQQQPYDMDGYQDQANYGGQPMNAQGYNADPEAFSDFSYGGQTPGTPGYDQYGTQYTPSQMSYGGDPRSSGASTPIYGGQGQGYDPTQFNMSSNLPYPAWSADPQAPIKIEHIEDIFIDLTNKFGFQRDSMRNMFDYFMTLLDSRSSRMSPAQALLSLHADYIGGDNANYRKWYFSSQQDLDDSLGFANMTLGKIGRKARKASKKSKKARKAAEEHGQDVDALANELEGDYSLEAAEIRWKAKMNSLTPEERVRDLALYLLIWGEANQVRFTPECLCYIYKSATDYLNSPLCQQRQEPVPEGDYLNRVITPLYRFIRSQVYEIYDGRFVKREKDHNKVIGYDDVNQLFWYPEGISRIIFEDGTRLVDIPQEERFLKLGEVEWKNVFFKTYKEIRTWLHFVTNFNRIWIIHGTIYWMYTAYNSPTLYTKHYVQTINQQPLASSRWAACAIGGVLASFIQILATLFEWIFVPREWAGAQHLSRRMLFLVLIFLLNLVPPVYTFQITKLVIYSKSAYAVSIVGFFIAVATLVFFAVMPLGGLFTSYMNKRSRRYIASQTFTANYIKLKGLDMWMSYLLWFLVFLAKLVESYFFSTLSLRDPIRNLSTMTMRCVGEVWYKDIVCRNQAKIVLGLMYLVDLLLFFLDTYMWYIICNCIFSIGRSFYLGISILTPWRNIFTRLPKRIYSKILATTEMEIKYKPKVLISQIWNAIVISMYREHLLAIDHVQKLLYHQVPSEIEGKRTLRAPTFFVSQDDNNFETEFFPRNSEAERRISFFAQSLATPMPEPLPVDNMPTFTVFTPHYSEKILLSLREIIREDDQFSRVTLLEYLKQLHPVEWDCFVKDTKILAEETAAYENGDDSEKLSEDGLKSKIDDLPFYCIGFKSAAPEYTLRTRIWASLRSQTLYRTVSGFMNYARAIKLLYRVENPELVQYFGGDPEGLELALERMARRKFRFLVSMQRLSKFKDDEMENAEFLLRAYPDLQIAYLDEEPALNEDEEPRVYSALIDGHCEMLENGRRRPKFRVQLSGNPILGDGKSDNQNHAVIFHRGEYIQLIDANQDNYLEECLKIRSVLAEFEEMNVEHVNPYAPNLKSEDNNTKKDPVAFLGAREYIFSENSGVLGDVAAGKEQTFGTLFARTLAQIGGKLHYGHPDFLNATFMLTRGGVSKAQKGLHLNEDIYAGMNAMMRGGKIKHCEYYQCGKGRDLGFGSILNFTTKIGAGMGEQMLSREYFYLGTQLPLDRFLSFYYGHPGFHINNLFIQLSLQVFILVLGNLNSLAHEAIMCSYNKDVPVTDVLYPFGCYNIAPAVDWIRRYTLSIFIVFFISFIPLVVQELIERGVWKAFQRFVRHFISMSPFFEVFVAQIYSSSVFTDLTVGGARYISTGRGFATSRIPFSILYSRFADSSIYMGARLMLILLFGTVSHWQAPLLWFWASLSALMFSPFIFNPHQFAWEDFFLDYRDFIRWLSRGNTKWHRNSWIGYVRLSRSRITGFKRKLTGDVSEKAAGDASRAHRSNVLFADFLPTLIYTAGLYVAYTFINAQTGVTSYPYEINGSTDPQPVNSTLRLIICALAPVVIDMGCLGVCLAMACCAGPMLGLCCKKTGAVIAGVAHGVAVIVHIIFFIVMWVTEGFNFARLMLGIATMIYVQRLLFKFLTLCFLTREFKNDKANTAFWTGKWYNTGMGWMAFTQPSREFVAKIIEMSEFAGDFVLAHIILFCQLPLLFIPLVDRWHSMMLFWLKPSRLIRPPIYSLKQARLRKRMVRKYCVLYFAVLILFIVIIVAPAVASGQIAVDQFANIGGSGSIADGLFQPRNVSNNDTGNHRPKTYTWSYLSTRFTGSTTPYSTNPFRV
T1 sequence (O42825 1-195 partner limits assumed): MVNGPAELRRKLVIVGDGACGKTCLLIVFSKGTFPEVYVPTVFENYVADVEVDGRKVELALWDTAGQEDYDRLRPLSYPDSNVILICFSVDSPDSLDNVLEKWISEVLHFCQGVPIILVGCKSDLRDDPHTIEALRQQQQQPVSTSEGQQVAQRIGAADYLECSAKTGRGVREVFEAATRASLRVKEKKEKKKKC
Test: Inhibition of the glucan synthase of Candida albicans (14C-UDP glucose incorporation, membrane preparation)
Type: biochemical
Conditions: Candida albicans membranes, 25° C., 1 hour; result in words
Procedure: A—Inhibition of the Glucan Synthase of Candida Albicans.
Candida albicans membranes are purified according to the process described by Tang et al Antimicrob. Agents Chemother 35, 99-103, 1991. 22.5 μg of membrane proteins are incubated in a mixture of 2 mM of ^14C-UDP glucose (specific activity=0.34 mCi./mmol, 50 μg of a α-amylase, 1 mM of dithiotreitol (DTT), 1 mM EDTA, 100 mM NaF, 7 μM of GTP-γ-S, 1M of sucrose and 50 mM of Tris-HCL (pH 7.8) in a volume of 100 μl. The medium is incubated at 25° C. for 1 hour and the reaction is terminated by adding TCA at a final concentration of 5%. The reaction mixture is transferred onto a pre-moistened glass fibre filter. The filter is washed, dried and its radioactivity is counted. Mulundocandin is used as a positive control. Control of the vehicle is carried out with the same quantity of 1% DMSO.

Compound	Inhibition of the Glucan Synthase of Candida Albicans
1-[(4R,5R)-4,5-dihydroxy-N2-[[[(3β, 22E)-ergosta-5,7,22-trien-3-yl]oxy]carbonyl]-L-ornithine]-mulundocandin [Example 3]	good activity
CC(C)=CCCC(C)C1CCC2(C)C3=C(CCC12C)C1(C)CCC(OC(=O)NC2CC(O)C(O)NC(=O)C(CO)NC(=O)C4C(O)C(C)CN4C(=O)C(C(O)Cc4ccc(O)cc4)NC(=O)C4CC(O)CN4C(=O)C(C(C)O)NC2=O)C(C)(C)C1CC3 [Example 2, 1-[(4R,5R)-4,5-dihydroxy-N2-[[[(3β)-lanosta-8,24-dien-3-yl]oxy]carbonyl]-L-ornithine]-deoxymulundocandin] (X1-[ξOrn(4,5-diOH)]T[Hyp][ξhTyr(βOH)][ξPro(3ξ-OH,4ξ-Me)]S; lactam 1-C; configuration not given here)	good activity
